Test results from US4939156A (priority 1987, dated 1990).
In brackets after ≈: the same amount, converted by molar mass.

Tests used:
[1] = in vitro; conditions: dog, mdck
[2] = test system: Influenza virus A/PR/8/34 strain; experiment: Antiviral activity, Virus No. 1 infested MDCK cell; assay type: cell-based; conditions: for IC50: PR/8, MDCK, 48 h, read-out: Inhibitory Concentration (IC50) which inhibited by 50% the denaturation of Virus No. 1 infested MDCK cell; for Quotient of minimum denaturation concentration divided by IC50, Virus No. 1: figures in brackets, MDCK cell, Influenza virus, 2880 min
[3] = in vitro; conditions: monkey, vero cells
[4] = in vitro; conditions: mouse, l-929 cells
[5] = test system: human premyelocytic leukemia cells (HL-60); experiment: NBT-reducing ability (differentiation) of HL-60 cells after treatment with test compound; assay type: cell-based; conditions: 0.1% NBT, 37° C., 20 minutes
Experimental: (§1) The human premyelocytic elukemia cells (HL-60 cell) are characterized by the ability to respond to pharmacological inducers of differentiation and can produce the normal granulocytes when they have been differentiated, as described in the "Blood" Vol. 54, No. 3, 713-733 (1979).
(§2) Thus, firstly the cell differentiation-inducing activity of the compound was assayed by the following procedure described in said "Blood". Namely, HL-60 cells were incubated by passing successively through RPMI 1640 media supplemented with 10% FCS (fetal calf serum), followed by adding the test compound at varying concentrations to aliquots of the culture of the HL-60 cells at the logarithmic phase of growth. The HL-60 cells thus incubated were further incubated in the presence of the test compound for 6 days and subsequently fixed to slide glasses. The fixed HL-60 cells were stained with May-Gruenwald-Giemsa's reagent and the morphology of the nuclei in the stained cells was examined to judge which of the cells has been differentiated into the normal granulocytes. Then, the number of the HL-60 cells which had propagated were counted.
Secondly, the another aliquot of the culture of the HL-60 cells which were incubated in the above procedure in the presence of the test compound at its evaluated "IC50 " concentration was centrifuged to collect the cells, which were then diluted with a volume of RPMI 1640 medium supplemented with 10% FCS, to provide a given concentration of the cells. Subsequently, the cells which were diluted with said medium were added and mixed with 0.1% of NBT and then incubated at 37° C. for 20 minutes. The number of the cells which stained black color owing to the involved reduction of NBT and which could be judged to have the ability to reduce NBT was counted.

[6] = test system: Herpes simplex virus (HSV) Type 2 196 strain; experiment: Antiviral activity, Virus No. 5 infested Vero cell; assay type: cell-based; conditions: for IC50: 48 h, HSV Type 2, Vero cell, read-out: Inhibitory Concentration (IC50) which inhibited by 50% the denaturation of Virus No. 5 infested Vello cell; for Quotient of minimum denaturation concentration divided by IC50, Virus No. 5: figures in brackets, Vero cell, HSV Type 2
[7] = test system: Newcastle disease virus (NDV) Miyadera strain; experiment: microbe, parasite or virus in culture; assay type: cell-based; conditions: for IC50: avian paramyxovirus 1, 48 h, read-out: Inhibitory Concentration (IC50) which inhibited by 50% the denaturation of Virus No. 2 infested HeLa-Y cell; for Quotient of minimum denaturation concentration divided by IC50, Virus No. 2: figures in brackets, HeLa-Y cell, NDV, 2880 min
[8] = in vitro; conditions: human, hela-y cells
[9] = test system: vesicular stomatitis virus (VSV) New Jersey strain; experiment: microbe, parasite or virus in culture; assay type: cell-based; conditions: for IC50: Vesicular stomatitis virus, L929, 48 h, read-out: Inhibitory Concentration (IC50) which inhibited by 50% the denaturation of Virus No. 3 infested L-929 cell; for Quotient of minimum denaturation concentration divided by IC50, Virus No. 3: figures in brackets, L-929 cell, VSV, 2880 min
[10] = test system: Vaccinia virus Lister strain; experiment: organism not typed; assay type: cell-based; conditions: for IC50: 48 h, read-out: Inhibitory Concentration (IC50) which inhibited by 50% the denaturation of Virus No. 4 infested HeLa-Y cell; for Quotient of minimum denaturation concentration divided by IC50, Virus No. 4: figures in brackets, HeLa-Y cell, Vaccinia virus, 2880 min
[11] = test system: human premyelocytic leukemia cells (HL-60); experiment: 50% inhibition of propagation of undifferentiated human premyelocytic leukemia HL-60 cells; assay type: cell-based; conditions: 144 h, 6 days incubation, read-out: Activity of test compound to inhibit by 50% the undifferentiated propagation of HL-60 cells (IC50)
Experimental: as §1, §2
As said "IC50 " concentration of the test compound was assumed such concentration of the test compound at which the counted number of the HL-60 cells having propagated was reduced by 50%, as compared to that counted in the control tests where the test compound was not used.

| Structure (SMILES) | MCC at 48 h [1] [µg/mL] | IC50 [2] [µg/mL] | Quotient of minimum denaturation concentration divided by IC50, Virus No. 1 [2] | MCC at 48 h [3] [µg/mL] | MCC at 48 h [4] [µg/mL] | Percent of the number of the cells showing the NBT-reducing ability after treatment with test compound at IC50 concentration [5] [%] | IC50 [6] [µg/mL] | Quotient of minimum denaturation concentration divided by IC50, Virus No. 5 [6] | IC50 [7] [µg/mL] | Quotient of minimum denaturation concentration divided by IC50, Virus No. 2 [7] | MCC at 48 h [8] [µg/mL] | IC50 [9] [µg/mL] | Quotient of minimum denaturation concentration divided by IC50, Virus No. 3 [9] | IC50 [10] [µg/mL] | Quotient of minimum denaturation concentration divided by IC50, Virus No. 4 [10] | IC50 [11] [µg/mL] |
| --- | --- | --- | --- | --- | --- | --- | --- | --- | --- | --- | --- | --- | --- | --- | --- | --- |
| NC12CC3CC(CC(C3)C1)C2 [Amantadine, reference compound] | 250 | 50 (≈ 331 µM) | 5.0 |  |  |  |  |  |  |  |  |  |  |  |  |  |
| CCN1C(=O)NC(=O)C2(F)C1C(C)(C)C2(C)C (stereo not shown) [TI-62 Substance, 2-ethyl-6-fluoro-7,7,8,8-tetramethyl-2,4-diaza-bicyclo{4.3.0}octane-3,5-dione] | 1000 | > 500 | < 2.00 | 500 | 250 | 34 | > 250 | < 2.00 | > 250 | < 1.00 | 250 | > 125 | < 2.00 | > 250 | < 1.00 | 9 (≈ 37.1 µM) |
| CCN1C(=O)N(CC)C2C(C)(C)C(C)(C)C2(F)C1=O (stereo not shown) [TI-65 Substance, 2,4-diethyl-6-fluoro-7,7,8,8-tetramethyl-2,4-diaza-bicyclo{4.2.0}octane-3,5-dione] | 1000 | 375 (≈ 1390 µM) | 2.67 | 500 | 250 | 20 | 188 (≈ 695 µM) | 2.66 | > 250 | < 1.00 | 250 | > 125 | < 2.00 | > 250 | < 1.00 | 36 (≈ 133 µM) |
| CN1C(=O)NC2C(C)(C)C(C)(C)C2(F)C1=O (stereo not shown) [TI-61 Substance, 6-fluoro-4,7,7,8,8-pentamethyl-2,4-diaza-bicyclo{4.2.0}octane-3,5-dione] | 250 | 188 (≈ 824 µM) | 1.33 | 125 | 125 | 18 | 93.8 (≈ 411 µM) | 1.33 | > 125 | < 1.00 | 125 | 93.8 (≈ 411 µM) | 1.33 | > 125 | < 1.00 | 39 (≈ 171 µM) |
| CCN1C(=O)[C@@H]2[C@H](N(CC)C1=O)C(C)(C)C2(C)C (relative stereo) [TI-16 Substance, 2,4-diethyl-7,7,8,8-tetramethyl-cis-2,4-diaza-bicyclo{4.2.0}octane-3,5-dione] | 1000 | 375 (≈ 1490 µM) | 2.67 | 500 | 500 | 69 | 375 (≈ 1490 µM) | 1.33 | > 250 | < 1.0 | 250 | > 500 | < 1.0 | > 250 | < 1.0 | 17 (≈ 67.4 µM) |
| CC1(C)O[C@@H]2[C@H](O1)[C@@H](CO)O[C@H]2N1C(=O)NC(=O)C2C1C(C)(C)C2(C)C (stereo partly drawn) [TI-28 Substance, 7,7,8,8-tetramethyl-2-(2',3'-isopropylidene-ribofuranosyl)-cis-2,4-diaza-bicyclo{4.2.0}octane-3,5-dione] | 1000 | 750 (≈ 2040 µM) | 1.33 | > 1000 | > 1000 | 37 | > 1000 | < 1.0 | > 1000 |  | > 1000 | 1000 (≈ 2710 µM) | 1.0 | > 1000 |  | 62.5 (≈ 170 µM) |
| CC1(C)C2N(Cc3ccccc3)C(=O)N(Cc3ccccc3)C(=O)C2(F)C1(C)C (stereo not shown) [TI-66 Substance, 2,4-dibenzyl-6-fluoro-7,7,8,8-tetramethyl-2,4-diaza-bicyclo{4.2.0}octane-3,5-dione] | 250 | > 200 | < 1.25 | 62.5 | 15.6 | 65 | > 100 | < 0.63 | > 25 | < 0.62 | 15.6 | 18.8 (≈ 47.7 µM) | 0.83 | > 25 | < 0.62 | 7 (≈ 17.7 µM) |
| Nc1nc2c(ncn2COCCO)c(=O)[nH]1 [Acyclovir, reference compound] |  |  |  | > 1000 |  |  | 1.17 (≈ 5.2 µM) | > 855 |  |  |  |  |  |  |  |  |
